From ChEMBL document CHEMBL1135332, “Synthesis and cytotoxic activity of pyridazino[1',6':1,2]pyrido[3,4-b]indol-5-inium derivatives as anti-cancer agents” (Bioorg Med Chem Lett, 2002)

How the values were obtained:
[1] = system: L1210; assay: Inhibitory concentration required against L1210 leukemia cells; type: functional, cell-based; conditions: Mus musculus
[2] = system: L1210; assay: Effect of compound on L1210 cell cycle was determined and percent of treated cells in the G2M phase of L1210 leukemia cells was determined; type: functional, Mus musculus
[3] = system: L1210; conditions: Mus musculus
Description: Effect on L1210 cell cycle was determined and percent of treated cells in the G1 phase of L1210 leukemia cells was determined; NS implies not significant.

[4] = system: L1210; conditions: Mus musculus; remark: listed apart in the source
Description: Effect on L1210 cell cycle was determined and percent of treated cells in the G2M phase of L1210 leukemia cells was determined; NS implies not significant.

[5] = system: L1210; assay: Cytotoxic concentration against L1210 leukemia cells was determined; 30% apoptosis ([…]) was observed; type: functional, cell-based; conditions: Mus musculus
[6] = system: L1210; assay: Effect on L1210 cell cycle was determined and percent of treated cells in the G1 phase of L1210 leukemia cells was determined; type: functional, Mus musculus
[7] = system: L1210; assay: Effect of compound on L1210 cell cycle was determined and percent of treated cells in the G2M phase of L1210 leukemia cells; type: functional, Mus musculus

IC50 [1] | Compound | Treated cells [3] | Treated cells [4] | also measured
2300 nM | COc1ccc2c3cc[n+]4nc(/C=C/[Si](C(C)C)(C(C)C)C(C)C)c(/C=C/[Si](C(C)C)(C(C)C)C(C)C)cc4c3n(C)c2c1 | – | – | –
10000 nM | CCc1cc2c3[nH]c4cc(O)ccc4c3cc[n+]2nc1CC | Not significant | Not significant | –
1500 nM | CCc1cc2c3[nH]c4c([N+](=O)[O-])cccc4c3cc[n+]2nc1CC | Not significant | Not significant | Concentration [5]: 5 µM
48 nM | CCCCCn1c2cc(OC)ccc2c2cc[n+]3nc(C)c(C)cc3c21 | – | – | Treated cells [6]: 57%
2000 nM | CCOC(=O)CCCn1c2cc(OC)ccc2c2cc[n+]3nc(CC)c(CC)cc3c21 | Not significant | Not significant | –
1100 nM | CCc1cc2c3c(cc[n+]2nc1CC)c1ccc(OC)cc1n3C | – | – | Treated cells [6]: 65%
65 nM | CCCCCn1c2cc(OC)ccc2c2cc[n+]3nc(CC)c(CC)cc3c21 | – | – | Treated cells [6]: 60%
2000 nM | CCc1cc2c3[nH]c4cc(OC)ccc4c3cc[n+]2nc1CC | – | – | Treated cells [7]: 35%
– | COc1cccc2c1C(=O)c1c(O)c3c(c(O)c1C2=O)C[C@@](O)(C(=O)CO)C[C@@H]3O[C@H]1C[C@H](N)[C@H](O)[C@H](C)O1 [DOXORUBICIN] | – | – | Treated cells [2]: 81%
1300 nM | C#CCCCn1c2cc(OC)ccc2c2cc[n+]3nc(-c4ccco4)c(-c4ccco4)cc3c21 | – | – | Treated cells [6]: 54%
1300 nM | COc1ccc2c(c1)[nH]c1c2cc[n+]2nc(C)c(C)cc12 | – | – | Treated cells [7]: 38%
1000 nM | CCc1cc2c3[nH]c4c(N)cccc4c3cc[n+]2nc1CC | Not significant | Not significant | Concentration [5]: 5 µM
10400 nM | C#CCNC(=O)Cn1c2ccccc2c2cc[n+]3nc(-c4cccc5ccccc45)c(-c4cccc5ccccc45)cc3c21 | Not significant | Not significant | –
1900 nM | CCc1cc2c3c(cc[n+]2nc1CC)c1ccccc1n3CCCBr | Not significant | Not significant | –
72900 nM | C#CCNC(=O)Cn1c2cc(OC)ccc2c2cc[n+]3nc(CC)c(CC)cc3c21 | – | – | –
2300 nM | CCc1cc2c3[nH]c4ccc(Br)cc4c3cc[n+]2nc1CC | Not significant | Not significant | –
5200 nM | Cc1cc2c3[nH]c4cc(OCc5ccccc5)ccc4c3cc[n+]2nc1C | Not significant | Not significant | –
1100 nM | CCOC(=O)Cn1c2cc(OC)ccc2c2cc[n+]3nc(CC)c(CC)cc3c21 | – | – | Treated cells [2]: 46%
1900 nM | CCc1cc2c3[nH]c4cc(OCc5ccccc5)ccc4c3cc[n+]2nc1CC.[Br-] | – | – | Treated cells [6]: 54%
15300 nM | CCc1cc2c3[nH]c4ccc([N+](=O)[O-])cc4c3cc[n+]2nc1CC | Not significant | Not significant | –
5000 nM | CCOC(=O)Cn1c2cc(OC)ccc2c2cc[n+]3nc(C)c(C)cc3c21 | Not significant | Not significant | –

Compound | IC50 [1] | Treated cells [3] | Treated cells [4] | also measured
CC[C@@]1(O)C(=O)OCc2c1cc1n(c2=O)Cc2cc3ccccc3nc2-1 [CAMPTOTHECIN] | 30 nM | – | – | Treated cells [2]: 80%
